Reference: ChEMBL document CHEMBL1201862, “PubChem BioAssay data set” (2004)
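Interpolation was linear, between the two tested concentrations surrounding the appropriate level; five concentrations were tested over 48 hours in 96-well plates. At the GI50, growth is halved.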 Active and inactive are the calls of the source. Cut-off read from the data, not from the text of the source: active = GI50 up to about 1.1 µM and inactive = higher. Where a SMILES comes first, the peptide text is derived from it. Square brackets hold non-standard residues; d marks the D form. Peptide text beside a SMILES is read from it.

What was measured:
Experiment in all cases: DTP human tumour cell line panel, 48 h
A498 = test system: A498
U-251 = test system: U-251
HT-29 = test system: HT-29
LOX IMVI = test system: LOX IMVI
RXF 393 = test system: RXF 393
A549 = test system: A549
Malme-3M = test system: Malme-3M
UO-31 = test system: UO-31
SF-295 = test system: SF-295
NCI-H522 = test system: NCI-H522
NCI-H23 = test system: NCI-H23
SF-539 = test system: SF-539
SR = test system: SR
SN12C = test system: SN12C
SK-OV-3 = test system: SK-OV-3
OVCAR-5 = test system: OVCAR-5
NCI/ADR-RES = test system: NCI/ADR-RES
T47D = test system: T47D
Hs-578T = test system: Hs-578T

Row | SMILES | GI50 (A498) | GI50 (U-251) | GI50 (HT-29) | GI50 (LOX IMVI) | GI50 (RXF 393) | GI50 (A549) | GI50 (Malme-3M) | GI50 (UO-31) | GI50 (SF-295) | GI50 (NCI-H522) | GI50 (NCI-H23) | GI50 (SF-539) | GI50 (SR) | GI50 (SN12C) | GI50 (SK-OV-3) | GI50 (OVCAR-5) | GI50 (NCI/ADR-RES) | GI50 (T47D) | GI50 (Hs-578T)
1 | CC1=NN2C(c3ccc([N+](=O)[O-])cc3)=CSC2=NC(C)(C)C1 | > 100 µM (inactive) | > 100 µM (inactive) | > 100 µM (inactive) | > 100 µM (inactive) | > 100 µM (inactive) | > 100 µM (inactive) | > 100 µM (inactive) | 88.1 µM (inactive) | > 100 µM (inactive) | > 100 µM (inactive) | > 100 µM (inactive) | > 100 µM (inactive) | > 100 µM (inactive) | > 100 µM (inactive) | > 100 µM (inactive) | > 100 µM (inactive) |  |  | 
2 | CN(C)c1cccc(OC(=O)NCCCl)c1 | > 100 µM (inactive) | > 100 µM (inactive) | > 100 µM (inactive) | > 100 µM (inactive) |  | > 100 µM (inactive) |  | > 100 µM (inactive) | > 100 µM (inactive) | > 100 µM (inactive) | > 100 µM (inactive) | > 100 µM (inactive) |  | > 100 µM (inactive) | > 100 µM (inactive) | > 100 µM (inactive) | > 100 µM (inactive) |  | 
3 | CCS(=O)(=O)Nc1ccc(Nc2c3ccccc3nc3ccccc23)c(OC)c1 | 0.24 µM (active) | 0.158 µM (active) | 1.07 µM (active) | 0.275 µM (active) | 1.99 µM (inactive) | 0.0205 µM (active) | 0.515 µM (active) | 0.397 µM (active) | 0.13 µM (active) | 1.2 µM (inactive) | 0.203 µM (active) | 0.295 µM (active) |  | 0.166 µM (active) | 0.203 µM (active) | 3.23 µM (inactive) | 5 µM (inactive) |  | 
4 | CN(C)CC1CCC/C1=N/OC(=O)c1ccccc1 (stereo not drawn) | > 100 µM (inactive) | > 100 µM (inactive) | > 100 µM (inactive) | > 100 µM (inactive) | > 100 µM (inactive) |  |  | > 100 µM (inactive) | > 100 µM (inactive) | > 100 µM (inactive) | > 100 µM (inactive) | > 100 µM (inactive) | > 100 µM (inactive) | > 100 µM (inactive) | > 100 µM (inactive) | > 100 µM (inactive) |  |  | 
5 | CC1NC(=O)CNC(=O)CNC(=O)C(Cc2ccc(O)cc2)NC(=O)C(C(C)C)NC(=O)C(C)NC1=O (stereo not drawn) (cyclo(GGAAVY); configuration not given here) | > 100 µM (inactive) | > 100 µM (inactive) | > 100 µM (inactive) | > 100 µM (inactive) |  | > 100 µM (inactive) |  | > 100 µM (inactive) | > 100 µM (inactive) |  | > 100 µM (inactive) | > 100 µM (inactive) |  | > 100 µM (inactive) | > 100 µM (inactive) | > 100 µM (inactive) | > 100 µM (inactive) |  | 
6 | CC(C)C[C@H](NC(=O)[C@H](CC(C)C)NC(=O)[C@@H](Cc1c[nH]c2ccccc12)NC(=O)[C@H](Cc1ccccc1)NC(=O)[C@@H](Cc1c[nH]c2ccccc12)NC(=O)[C@H](CCC(N)=O)NC(=O)[C@@H](CCC(N)=O)NC(=O)[C@@H]1CCCN1C(=O)[C@@H](CCCCN)NC(=O)[C@H]1CCCN1C(=O)[C@H](N)CCCN=C(N)N)C(N)=O (H-[dR][dP][dK]P[dQ]Q[dW]F[dW]LL-NH2) | 32.3 µM (inactive) | > 55 µM (inactive) | > 100 µM (inactive) | > 100 µM (inactive) | > 100 µM (inactive) | > 100 µM (inactive) | > 31.6 µM (inactive) | > 100 µM (inactive) | 63.5 µM (inactive) | > 100 µM (inactive) | > 100 µM (inactive) | > 61.4 µM (inactive) |  | > 100 µM (inactive) | > 100 µM (inactive) | > 100 µM (inactive) | > 100 µM (inactive) |  | 
7 | O=C(CCN1CCOCC1)C(=Cc1ccccc1)C(=O)CCN1CCOCC1 | 17.3 µM (inactive) | 14.1 µM (inactive) | 2.98 µM (inactive) | 1.93 µM (inactive) | 1.68 µM (inactive) | 18.1 µM (inactive) | 2.45 µM (inactive) | 12.3 µM (inactive) | 15.6 µM (inactive) | 1.5 µM (inactive) | 2.3 µM (inactive) | 3.44 µM (inactive) |  | 2.96 µM (inactive) | 16.6 µM (inactive) | 19.2 µM (inactive) | 2.46 µM (inactive) |  | 
8 | Cc1ccc(NC(=O)CC(=O)n2nc(C)c(/N=N/c3ccc(S(=O)(=O)CCOS(=O)(=O)O)cc3)c2C)cc1 | > 100 µM (inactive) | > 100 µM (inactive) | > 100 µM (inactive) | > 100 µM (inactive) | > 100 µM (inactive) | > 100 µM (inactive) | > 100 µM (inactive) | > 100 µM (inactive) | 97.1 µM (inactive) | > 100 µM (inactive) | > 100 µM (inactive) | > 100 µM (inactive) |  | > 10 µM (inactive) | > 100 µM (inactive) | > 100 µM (inactive) | > 100 µM (inactive) | > 100 µM (inactive) | > 100 µM (inactive)
